Source: patent US20260131009A1, “BIFUNCTIONAL PI3K-ALPHA INHIBITORS AND USES THEREOF” (Relay Therapeutics, Inc., priority 2021, published 2026)

Experiments:
[1] = test system: MCF10A; experiment: MCF10A IC50 assay; type: cell-based; conditions: Homo sapiens, MCF-10A; class symbols; key not given
How it was run: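 MCF10A cells overexpressing hotspot PIK3CA mutations were seeded at 5,000 per well in supplemented DMEM/F12 and adhered overnight (37 °C, 5% CO₂). Compounds were added acoustically as 12-dose 1:3 series, in duplicate, for 2 hours. Cells were lysed 60 min, then incubated 4 hours at room temperature with CisBio phospho-AKT (Ser473) HTRF antibodies and read on an Envision 2105. IC₅₀ for AKT phosphorylation came from Genedata software and was reported as binned categories.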

[2] = target: PI3Kα (Homo sapiens, UniProt P42336, H1047R); experiment: ADP-Glo IC50 assay; type: biochemical; conditions: class symbols; key not given
Sequence of PI3Kα (P42336 whole entry H1047R): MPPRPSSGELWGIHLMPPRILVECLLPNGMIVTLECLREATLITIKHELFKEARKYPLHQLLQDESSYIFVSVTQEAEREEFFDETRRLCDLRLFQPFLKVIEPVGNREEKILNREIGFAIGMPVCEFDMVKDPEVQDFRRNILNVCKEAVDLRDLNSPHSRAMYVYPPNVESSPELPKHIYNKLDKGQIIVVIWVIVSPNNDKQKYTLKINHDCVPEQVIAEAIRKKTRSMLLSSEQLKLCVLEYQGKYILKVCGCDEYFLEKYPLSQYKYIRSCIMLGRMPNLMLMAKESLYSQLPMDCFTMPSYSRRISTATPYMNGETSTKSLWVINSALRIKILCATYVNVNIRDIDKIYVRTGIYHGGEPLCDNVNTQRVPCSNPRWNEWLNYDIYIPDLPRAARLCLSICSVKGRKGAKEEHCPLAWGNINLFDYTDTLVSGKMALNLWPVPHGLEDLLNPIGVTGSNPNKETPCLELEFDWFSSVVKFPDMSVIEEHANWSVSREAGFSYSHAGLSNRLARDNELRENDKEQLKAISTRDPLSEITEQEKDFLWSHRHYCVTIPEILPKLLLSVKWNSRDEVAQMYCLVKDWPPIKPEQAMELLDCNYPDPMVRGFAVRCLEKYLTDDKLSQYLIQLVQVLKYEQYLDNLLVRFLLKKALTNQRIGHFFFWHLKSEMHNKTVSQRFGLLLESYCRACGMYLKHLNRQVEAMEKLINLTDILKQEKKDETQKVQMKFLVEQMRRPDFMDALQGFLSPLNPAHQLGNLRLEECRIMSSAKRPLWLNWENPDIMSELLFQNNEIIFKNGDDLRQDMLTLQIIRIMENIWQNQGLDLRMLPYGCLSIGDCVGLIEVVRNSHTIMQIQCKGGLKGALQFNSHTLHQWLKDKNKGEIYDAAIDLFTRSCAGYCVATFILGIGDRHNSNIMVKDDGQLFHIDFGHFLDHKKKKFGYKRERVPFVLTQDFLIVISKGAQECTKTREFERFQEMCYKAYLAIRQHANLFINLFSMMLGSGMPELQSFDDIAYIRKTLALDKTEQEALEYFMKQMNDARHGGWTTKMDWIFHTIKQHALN
Sequence of PI3Kα (P27986 whole entry partner): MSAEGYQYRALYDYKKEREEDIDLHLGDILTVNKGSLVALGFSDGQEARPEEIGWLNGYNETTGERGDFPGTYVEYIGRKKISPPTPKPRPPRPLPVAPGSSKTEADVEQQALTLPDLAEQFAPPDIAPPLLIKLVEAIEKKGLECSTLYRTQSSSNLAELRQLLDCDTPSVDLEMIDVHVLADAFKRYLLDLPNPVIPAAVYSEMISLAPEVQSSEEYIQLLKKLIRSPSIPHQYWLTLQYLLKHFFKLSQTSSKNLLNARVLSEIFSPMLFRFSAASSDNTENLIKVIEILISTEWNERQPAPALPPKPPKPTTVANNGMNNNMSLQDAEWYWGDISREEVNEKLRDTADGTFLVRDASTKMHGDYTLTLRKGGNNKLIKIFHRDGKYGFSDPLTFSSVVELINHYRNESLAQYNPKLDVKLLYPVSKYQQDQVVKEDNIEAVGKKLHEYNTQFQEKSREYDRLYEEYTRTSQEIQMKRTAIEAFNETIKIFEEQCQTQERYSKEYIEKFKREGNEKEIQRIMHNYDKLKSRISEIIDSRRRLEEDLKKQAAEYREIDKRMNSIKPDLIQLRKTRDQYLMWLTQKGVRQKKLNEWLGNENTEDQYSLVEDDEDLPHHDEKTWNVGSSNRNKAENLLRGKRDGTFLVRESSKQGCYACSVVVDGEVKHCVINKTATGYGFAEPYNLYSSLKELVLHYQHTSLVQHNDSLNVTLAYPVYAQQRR

SMILES | IC50 [1] | IC50 [2]
Cc1cc(Br)c2oc(N3CCN(C(=O)CCCCCCCCCNC(=O)c4cnc(Nc5ccccc5C)c(NC(=O)c5csc6ccccc56)c4)CC3)cc(=O)c2c1 [Example I-82] | 10 to 36 µM | 0.1 to 0.5 µM
Cc1cc(Br)c2oc(N3CCN(C(=O)CCCCCCCNC(=O)c4cnc(Nc5ccccc5C)c(NC(=O)c5csc6ccccc56)c4)CC3)cc(=O)c2c1 [Example I-87] | < 1 µM | 0.1 to 0.5 µM
